According to patent US10695360B2, “Adiponectin secretion enhancer” (WASHINGTON UNIVERSITY, priority 2017, dated 2020):

How the values were obtained:
[1] = tested on: ANKO mice (adipose tissue-specific NAMPT knockout mice); assay: NAD+ precursor rescue experiments in ANKO mice (Example 5); format: in vivo, mouse
Excerpt: To determine whether metabolic derangements depend on the defects in NAD+ biosynthesis in ANKO mice, we treated mice with NMN, a key NAD+ intermediate and the product of the NAMPT reaction (FIG. 6A). In the diagram, “NA” represents nicotinic acid, “NaMN” represents nicotinic acid mononucleotide, “NIC” represents nicotinamide, “NR” represents nicotinamide riboside, “Tip” represents tryptophan, and “NAPRT” represents nicotinate phosphoribosyl transferase. NMN is a product of an enzyme reaction mediated by NAMPT and is converted directly to NAD+. Nicotinic acid is a precursor in the NAPRT-dependent NAD+ biosynthesis pathway.
ANKO mice were generated by using adiponectin-Cre transgenic mice and floxed-Nampt mice as previously described (Noon et al., 2015). Mice were maintained on a standard chow diet (LabDiet 5053; LabDiet) ad libitum. For RSG rescue experiments, ANKO mice received a chow containing RSG (#71740; Cayman Chemical) at the approximate dose of 20 mg/kg body Weight/day soon after weaning for up to 7 weeks. For NAD+ precursor rescue experiments, we administered NMN (#44500900; Oriental Yeast) and NA (#72309; Sigma-Aldrich) in drinking water, at the approximate dose of 500 mg/kg of body weight, to ANKO mice soon after weaning for up to 2 months.
More specifically, drinking water containing NMN (500 mg/kg body weight/day) was administered to the female ANKO mice and metabolic parameters were investigated after administering NMN for 4 to 6 weeks. In the graphs, “NMN-ANKO” indicates the results for NMN-treated ANKO mice, “ANKO” indicates the results for NMN-untreated ANKO mice of the same age as the NMN-treated ANKO mice, and “flox/flox” indicates the results for the control mice (female Nampt-floxed (flox/flox) mice). All values in the graphs represent the mean ±SE. In the graphs, “*” indicates p<0.05, “**” indicates p<0.01, and “***” indicates p<0.001 (NMN-treated ANKO mice vs. NMN-untreated ANKO mice, Student's t-test). In addition, in the graphs, “a” indicates p<0.05 (NMN-treated ANKO mice vs. NMN-untreated ANKO mice, ANOVA), and “b” indicates p<0.05 (control mice vs. NMN-untreated ANKO mice, ANOVA).
FIG. 6B indicates the results of measuring […] levels in adipose tissue for female ANKO mice administered NMN for 4 to 6 weeks (500 mg/kg body weight day) and non-dosed female ANKO mice of the same age (per group, n=5 to 7). NAD+ levels were measured with an HPLC (high-performance liquid chromatography) system using a Supelco LC-18-T column (#58970-U, Sigma-Aldrich Corp.) (Yoon, et al., Cell Metabolism, 2015, Vol. 21, p. 706-717). FIG. 6C indicates the results of having carried out an insulin tolerance test (ITT), consisting of administering insulin and measuring blood glucose concentration over time, on NMN-treated mice following administration of NMN for 4 weeks (n=7) and non-dosed ANKO mice for which age has been aligned at 2 to 3 weeks (n=14), and control mice (n=8). The left graph in FIG. 6C indicates the results for changes in glucose concentration over time (insulin tolerance curve), while the graph on the right side of FIG. 6C indicates the results for the area under the curve (AUC) of glucose concentration.
The results for measuring plasma insulin concentrations for NMN-treated ANKO mice, NMN-untreated ANKO mice and control mice are shown in FIG. 6D, while the results of measuring plasma free fatty acid (FFA) concentrations are shown in FIG. 6E (per group, n=5 to 11). In addition, visceral adipose tissue was respectively sampled from NMN-treated ANKO mice and NMN-untreated ANKO mice followed by measurement of the levels of PPARγ (Ser273), CDK5 and nuclear protein acetylated lysine in the visceral adipose tissue (per group, n=3 to 4). […]

adiponectin [2] = assay: Serum adiponectin levels in rats orally administered β-NMN (Example 1); format: in vivo, rat; settings: CD rats, males and females, oral 250 and 1000 mg/kg/day, day 28
Description: (§1) A solution prepared by dissolving β-NMN (Oriental Yeast Co., Ltd.) in water for injection (Otsuka Pharmaceutical Co., Ltd.) or PBS (phosphate-buffered saline) was orally administered by gavage using a metal gastric tube (Fuchigami Kikai Co., Ltd.) attached to a polypropylene disposable syringe (Terumo Corp.).
(§2) Measurement of adiponectin levels in the following experiments was carried out in the manner indicated below.
(§3) Anti-mouse adiponectin polyclonal antibody (Oriental Yeast Co., Ltd.) was adjusted to 10 μg/mL with PBS for use as primary antibody solution. […]
(§4) Moreover, 100 μl of substrate solution (Becton Dickinson & Co., TMB Substrate Reagent Set, #555214) were added to each well, and the plate covered with sealing film was incubated for 15 minutes at 25° C. After stopping the reaction by adding 100 μL of 2 N sulfuric acid to each well, the absorbance of each well was measured at a primary wavelength of 450 nm and a secondary wavelength of 570 nm with a plate reader (FLOUstar Optima, BMG LabTech Ltd.). Furthermore, since the mouse adiponectin polyclonal antibody used in ELISA cross-reacts with rat adiponectin, levels of rat adiponectin were measured as mouse adiponectin by using standard mouse adiponectin. […]
Rat serum adiponectin levels were measured on day 28 from the start of administration.

adiponectin [3] = assay: Serum adiponectin levels in mice intraperitoneally administered β-NMN (Example 3); format: in vivo, mouse; settings: C57BL/6J mice, females, intraperitoneal 625 and 1250 mg/kg/day, day 4
Description: A solution prepared by dissolving β-NMN (Oriental Yeast Co., Ltd.) in PBS (phosphate-buffered saline) was administered intraperitoneally in accordance with the method of Dr. Sinclair (Gomes, et al., Cell, 2013, Vol. 155, p. 1624-1638) and the method of Dr. Imai (Yoshino, et al., Cell Metabolism, 2011, Vol. 14, p. 528-536).
as §2, §3, §4
(§5) Mouse serum adiponectin levels were measured on day 4 from the start of administration. […]

[4] = tested on: adipocytes differentiated from mouse fibroblast 3T3-L1 cells; assay: Adiponectin secreted from adipocytes differentiated from 3T3-L1 cells stimulated with β-NMN (Example 4); format: cell-based; settings: 3T3-L1 adipocytes cultured with β-NMN for 7 days vs without
Description: 3T3-L1 cells were differentiated into adipocytes and then the cells were stimulated with β-NMN to measure the secreted amount of adiponectin. The 3T3-L1 cells were differentiated into adipocytes in the manner described below. First, 3T3-L1 cells were seeded in a 24-well plate at 5×10^4 cells/well followed by culturing for 2 to 3 days in culture medium (DMEM containing 10% fetal bovine serum (FBS)) at 37° C. in 5% CO2. Next, the culture medium was replaced with a first differentiation-inducing medium (containing 10 μM dexamethasone, 5 μM 3-isobutyl-1-methylxanthine (IBMX) and 10 μg/mL of insulin) followed by culturing for 2 days at 37° C. in 5% CO2. The medium was replaced with the second differentiation-inducing medium (containing 10 μg/mL of insulin) followed by culturing for 2 days at 37° C. in 5% CO2. Subsequently, the medium was twice replaced with culture medium every 2 to 3 days to differentiate the 3T3-L1 cells into mature adipocytes. 3T3-L1 adipocytes were cultured in the presence (“NMN addition”) or absence (“NMN non-addition”) of β-NMN for 7 days. The amount of adiponectin secreted into the culture supernatant was measured. The results of measurement of adiponectin levels in the culture supernatant are shown in. FIG. 4. […]

adiponectin [5] = assay: Serum adiponectin levels in mice orally administered β-NMN (Example 2); format: in vivo, mouse; settings: C57BL/6N mice, females, oral 125 and 625 mg/kg/day, day 4
Description: as §1, §2, §3, §4, §5

[6] = ANKO mice, NMN 500 mg/kg body weight/day, 4 to 6 weeks
[7] = NMN-treated vs untreated ANKO mice
[8] = visceral adipose tissue, NMN-treated vs untreated ANKO mice

Row | SMILES | metabolic disorders of ANKO mice ([1]; nicotinic acid 500 mg/kg body weight/day, 5- to 7-week administration) | serum adiponectin levels (adiponectin [2]) | serum adiponectin levels (adiponectin [3]) | insulin sensitivity (insulin tolerance test) ([1]; ANKO mice, NMN 500 mg/kg body weight/day for 4 weeks, vs age-matched untreated ANKO mice) | plasma FFA concentrations [1, 6] | plasma insulin concentrations [1, 6] | plasma concentrations of adiponectin [1, 7] | plasma concentrations of adipsin [1, 7] | adipose tissue NAD+ concentrations ([1]; female ANKO mice, NMN 500 mg/kg body weight/day in drinking water, 4 to 6 weeks) | Adipose tissue gene expression of adiponectin and adipsin [1, 8] | global nuclear lysine acetylation [1, 8] | phosphorylation of CDK5 in VAT [1, 8] | phosphorylation of PPARγ (Ser273) in VAT [1, 8] | metabolic disorders of ANKO mice ([1]; β-NMN 500 mg/kg body weight/day in drinking water, 4 to 6 weeks) | adiponectin levels in the culture supernatant [4] | serum adiponectin levels (adiponectin [5])
1 | O=C(O)c1cccnc1 [nicotinic acid, reference compound] | improved |  |  |  |  |  |  |  |  |  |  |  |  |  |  | 
2 | NC(=O)c1ccc[n+]([C@@H]2O[C@H](COP(=O)([O-])O)C(O)[C@H]2O)c1 (stereo partly drawn) [β-NMN, Nicotinamide mononucleotide] |  | increased serum adiponectin levels dose-dependently | increased serum adiponectin levels dose-dependently | improved | normalized | normalized | restored | restored | significantly increased | restored | reduced | decreased | decreased | improved | higher | increased serum adiponectin levels dose-dependently
